pIC50: −log10 of the molar value.

This test deals with classical complement pathway. As to the kind of experiment: In vitro haemolysis assay (inhibition of classical complement pathway). Type of test: cell-based, human. The following applies: human serum, sensitized sheep red blood cells; Table 3, given as upper bounds; read-out: IC50, inhibition of hemolysis. The protocol: The in vitro effect of the compounds of the present invention was assessed by measuring their inhibitory effect of the classical complement pathway in a haemolysis assay. Briefly, compounds of the present invention and reference compounds were dissolved in DMSO and diluted in Tris/Casein Assay Buffer (10 mM Tris, 145 mM NaCl, 0.5 mM MgCl2, 0.15 mM CaCl2), and 0.1% W/V Casein, adjusted to pH 7.4) as 9-point serial dilutions in a 96 well plate. Sensitized sheep red blood cells (RBC) coated with rabbit anti-sheep erythrocyte antiserum (Complement Technology, Inc., TX, USA) were washed in Tris/Casein Assay Buffer. […] from each well of diluted compound was added to a 96-well plate containing 50 μL diluted human serum (Complement Technology, Inc., TX, USA) and incubated for 15 minutes at room temperature. The serum dilution factor was optimized for every serum batch to obtain 70-90% of maximal haemolysis using the protocol. Then 50 μL sensitized sheep red blood cells were added to all wells (10^7 per well). After 30 minutes of incubation at 37 QC with gentle agitation, the reaction was stopped by addition of 50 μL Tris STOP Buffer per well (10 mM EDTA, 10 mM Tris, 145 mM NaCl adjusted to pH 7.4). The RBCs were then removed by centrifugation and the resulting supernatant measured for hemolysis by absorbance at 405 nm. […]

In the case of “Ac-IC(1)IWQDWGEHRC(1)TEG-K((15-carboxy-pentadecanoyl)-[(Piperazine-1-yl)-acetyl][Peg3][Peg3])-NH2 [Compound 95]”, the pIC50 was above 6.30.

What is called pIC50 is the negative decadic logarithm of the IC50, by convention in mol/L.

For the origin of these results see patent publication US11965039B2, “Compstatin analogues and their medical uses” (priority 2018, dated 2024).
